# Reference: patent publication US8685987B2, “Substituted [1,2,4]triazolo[1,5-a]pyrimidines and their use as potassium channel modulators” (Ataxion, Inc., priority 2009, dated 2014)
# Target: T1, hSK1 channels (Homo sapiens, UniProt Q92952)
# T1 construct: expressed in transfected cells; host or cells: HEK293
# Experiment: Whole-cell patch-clamp recording of SK current in HEK293 cells expressing hSK1 channels
# Assay type: cell-based
# Settings: SK1 activation
# Text: The compounds of the invention may be tested for their ability to modulate SK channels in vitro. Functional modulation can be determined by measuring the compound-induced change in SK current by the patch clamp technique as described in Strøbk et al.: “Pharmacological characterization of small-conductance Ca^2+-activated K channels expressed in HEK293 cells”, British Journal of Pharmacology (2000) 129, 991-999. From this type of measurements the potency of a given compound can be determined as e.g. Ki or IC50 values for blockers/inhibitors and EC50 values for openers/activators. Similar data can be obtained from other patch clamp configurations and from channels expressed endogenously in various cell lines.
# The ionic current through small-conductance Ca^2+-activated K^+ channels (SK channels, subtype 1) is recorded using the whole-cell configuration of the patch-clamp technique in a classic patch-clamp set-up using HEK293 tissue culture cells expressing hSK1 channels as described in e.g. WO 2006/100212.
# The SC100 value determined is defined as the Stimulating Concentration required for increasing the baseline current by 100%. The below SC100 values are an indication of the SK1 activating properties of the compounds of the invention.
row,The SC100 (Stimulating Concentration required for increasing the baseline current by 100%) [µM],Compound
1,0.015,"CON=CNc1nc2nccc(C(C)Oc3ccc(Br)cc3)n2n1 (stereo not drawn) [Example 1, N-{7-[1-(4-Bromophenoxy)ethyl]-[1,2,4]triazolo[1,5-a]pyrimidin-2-yl}-N′-methoxy-formamidine]"
2,0.005,"CON=CNc1nc2nccc(C(C)Oc3ccc(Cl)cc3Cl)n2n1 (stereo not drawn) [Example 2, N-{7-[1-(2,4-Dichlorophenoxy)ethyl]-[1,2,4]triazolo[1,5-a]pyrimidin-2-yl}-N′-methoxy-formamidine]"
3,0.04,"CON=CNc1nc2nccc(C(C)Oc3ccc(Cl)cc3)n2n1 (stereo not drawn) [Example 3, N-{7-[1-(4-Chlorophenoxy)ethyl]-[1,2,4]triazolo[1,5-a]pyrimidin-2-yl}-N′-methoxy-formamidine]"
4,0.003,"CCCON=CNc1nc2nccc(C(C)Oc3ccc(Cl)cc3C)n2n1 (stereo not drawn) [Example 5, N-{7-[1-(4-Chloro-2-methylphenoxy)ethyl]-[1,2,4]triazolo[1,5-a]pyrimidin-2-yl}-N′-propyloxy-formamidine]"
5,0.40,"Cc1cc(Cl)ccc1OC(C)c1ccnc2nc(NC=NOC(C)C)nn12 (stereo not drawn) [Example 6, N-{7-[1-(4-Chloro-2-methylphenoxy)ethyl]-[1,2,4]triazolo[1,5-a]pyrimidin-2-yl}-N′-isopropyloxy-formamidine]"
6,0.60,"CON=CNc1nc2nccc(C(C)(C)Oc3ccc(Cl)cc3C)n2n1 [Example 7, N-{7-[1-(4-Chloro-2-methylphenoxy)-1-methyl-ethyl]-[1,2,4]triazolo[1,5-a]pyrimidin-2-yl}-N′-methoxy-formamidine]"
7,0.008,"CON=CNc1nc2nccc(C(C)Oc3ccc(Cl)cc3C)n2n1 (stereo not drawn) [Example A, N-{7-[1-(4-Chloro-2-methylphenoxy)ethyl]-[1,2,4]triazolo[1,5-a]pyrimidin-2-yl}-N′-methoxy-formamidine]"
8,0.075,"CON=CNc1nc2nccc(C(C)Oc3ccc(F)cc3)n2n1 (stereo not drawn) [Example B, N-{7-[1-(4-Fluorophenoxy)ethyl]-[1,2,4]triazolo[1,5-a]pyrimidin-2-yl}-N′-methoxy-formamidine]"
9,0.20,"N-{7-[1-(4-Chloro-2-methylphenoxy)-ethyl]-6-methyl-[1,2,4]triazolo[1,5-a]pyrimidin-2-yl}-N′-hydroxy-formamidine [Example 4]"
